Data taken from ChEMBL document CHEMBL4665642, “Anticancer profile of newly synthesized BRAF inhibitors possess 5-(pyrimidin-4-yl)imidazo[2,1-b]thiazole scaffold” (Bioorg Med Chem, 2019).

Tests used:
A-375 = experiment: Cytotoxicity against human A-375 cells assessed as reduction in cell viability by MTT assay; assay type: functional, cell-based
SK-MEL-28 = experiment: Cytotoxicity against human SK-MEL-28 cells assessed as reduction in cell viability by MTT assay; assay type: functional, cell-based
L132 = experiment: Cytotoxicity against human L132 cells assessed as reduction in cell viability by MTT assay; assay type: cell-based
[1] = target: Serine/threonine-protein kinase B-raf (Homo sapiens, UniProt P15056, V600E); experiment: Inhibition of human BRAF V600E mutant using MEK1 as substrate by […] assay
Sequence of Serine/threonine-protein kinase B-raf (Homo sapiens, UniProt P15056, V600E) (P15056 2-766 V600E limits assumed): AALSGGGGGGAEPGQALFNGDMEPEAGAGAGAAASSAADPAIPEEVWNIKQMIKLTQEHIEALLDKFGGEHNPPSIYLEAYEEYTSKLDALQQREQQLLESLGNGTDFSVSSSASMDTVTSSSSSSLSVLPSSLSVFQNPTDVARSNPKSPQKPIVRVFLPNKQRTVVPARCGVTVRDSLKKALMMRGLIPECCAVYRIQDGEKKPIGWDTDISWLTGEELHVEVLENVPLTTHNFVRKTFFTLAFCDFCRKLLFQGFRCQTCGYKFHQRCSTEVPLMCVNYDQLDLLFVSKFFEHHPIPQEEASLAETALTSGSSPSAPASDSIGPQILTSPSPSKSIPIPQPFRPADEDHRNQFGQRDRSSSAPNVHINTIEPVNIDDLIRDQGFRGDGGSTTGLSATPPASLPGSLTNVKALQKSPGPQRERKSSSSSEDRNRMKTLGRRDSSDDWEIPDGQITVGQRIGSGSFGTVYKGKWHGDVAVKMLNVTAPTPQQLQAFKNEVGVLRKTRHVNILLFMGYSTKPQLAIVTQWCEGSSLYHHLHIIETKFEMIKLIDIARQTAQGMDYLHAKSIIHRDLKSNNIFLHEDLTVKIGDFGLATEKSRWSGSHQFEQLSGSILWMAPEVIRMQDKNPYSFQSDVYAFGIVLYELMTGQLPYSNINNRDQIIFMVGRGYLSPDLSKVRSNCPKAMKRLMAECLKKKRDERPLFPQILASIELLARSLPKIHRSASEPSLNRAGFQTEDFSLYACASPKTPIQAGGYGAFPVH

[2] = target: RAF proto-oncogene serine/threonine-protein kinase (Homo sapiens, UniProt P04049); experiment: Inhibition of human CRAF using MEK1 as substrate by [gamma-33P]-ATP assay
Sequence of RAF proto-oncogene serine/threonine-protein kinase (P04049 whole entry): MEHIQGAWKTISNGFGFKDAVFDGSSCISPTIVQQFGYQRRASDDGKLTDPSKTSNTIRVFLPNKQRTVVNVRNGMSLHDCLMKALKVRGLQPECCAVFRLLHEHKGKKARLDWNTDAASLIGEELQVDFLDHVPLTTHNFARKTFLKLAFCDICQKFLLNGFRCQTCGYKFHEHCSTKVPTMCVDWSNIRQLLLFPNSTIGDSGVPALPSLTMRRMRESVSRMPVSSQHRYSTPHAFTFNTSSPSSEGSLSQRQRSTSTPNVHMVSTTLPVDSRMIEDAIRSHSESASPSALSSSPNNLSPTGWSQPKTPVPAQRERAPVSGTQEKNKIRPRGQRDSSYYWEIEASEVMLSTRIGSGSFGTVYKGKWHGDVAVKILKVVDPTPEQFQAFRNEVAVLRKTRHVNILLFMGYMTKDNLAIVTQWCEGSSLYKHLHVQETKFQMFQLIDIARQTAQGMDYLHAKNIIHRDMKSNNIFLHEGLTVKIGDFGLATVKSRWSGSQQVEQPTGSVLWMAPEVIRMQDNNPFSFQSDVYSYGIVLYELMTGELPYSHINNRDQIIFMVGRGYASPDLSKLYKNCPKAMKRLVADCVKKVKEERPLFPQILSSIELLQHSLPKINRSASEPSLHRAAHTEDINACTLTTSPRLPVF

[3] = target: Serine/threonine-protein kinase B-raf (Homo sapiens, UniProt P15056); experiment: Inhibition of human BRAF using MEK1 as substrate by […] assay
Sequence of Serine/threonine-protein kinase B-raf (Homo sapiens, UniProt P15056) (P15056 whole entry): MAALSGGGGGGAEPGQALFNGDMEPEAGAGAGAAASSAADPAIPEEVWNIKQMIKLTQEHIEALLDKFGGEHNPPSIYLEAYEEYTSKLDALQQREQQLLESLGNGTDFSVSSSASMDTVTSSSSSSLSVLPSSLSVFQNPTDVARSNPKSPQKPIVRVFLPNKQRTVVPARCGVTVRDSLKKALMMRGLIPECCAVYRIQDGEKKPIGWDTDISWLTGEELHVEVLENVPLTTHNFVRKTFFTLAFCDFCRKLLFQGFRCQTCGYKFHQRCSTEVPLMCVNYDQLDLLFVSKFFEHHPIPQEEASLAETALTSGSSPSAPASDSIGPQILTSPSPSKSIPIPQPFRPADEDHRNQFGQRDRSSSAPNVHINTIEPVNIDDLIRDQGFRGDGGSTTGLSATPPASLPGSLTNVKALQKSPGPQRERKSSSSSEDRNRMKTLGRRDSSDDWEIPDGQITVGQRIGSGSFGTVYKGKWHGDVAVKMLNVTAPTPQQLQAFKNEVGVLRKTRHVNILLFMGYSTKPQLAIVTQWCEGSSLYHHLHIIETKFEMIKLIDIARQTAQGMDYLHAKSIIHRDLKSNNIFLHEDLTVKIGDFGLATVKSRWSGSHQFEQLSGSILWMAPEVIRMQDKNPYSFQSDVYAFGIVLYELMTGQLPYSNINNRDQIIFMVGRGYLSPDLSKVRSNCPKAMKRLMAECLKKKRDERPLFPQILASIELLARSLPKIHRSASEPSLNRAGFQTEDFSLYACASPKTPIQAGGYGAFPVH

For Cc1ccc(S(=O)(=O)NCCNc2nccc(-c3c(-c4cccc(F)c4)nc4sccn34)n2)cc1, which IC50 (A-375) is on record?
The IC50 was 15.4 µM.

And the IC50 (SK-MEL-28)?
Its IC50 is greater than 20 µM.

For CNC(=O)c1cc(Oc2ccc(NC(=O)Nc3ccc(Cl)c(C(F)(F)F)c3)cc2)ccn1 [SORAFENIB], which IC50 (A-375) is on record?
Its IC50 is 7.88 µM.

And the IC50 (SK-MEL-28)?
The IC50 was 9.45 µM.

Which results are given for Cc1ccc(C(=O)NCCNc2nccc(-c3c(-c4cccc(F)c4)nc4sccn34)n2)cc1?
IC50 (A-375): 5.88 µM; IC50 (L132): 245 µM; IC50 (SK-MEL-28): 18.8 µM

For COc1ccc(S(=O)(=O)NCCCNc2nccc(-c3c(-c4cccc(F)c4)nc4sccn34)n2)cc1, which IC50 [1] is on record?
The IC50 was 25.1 nM.

What about the IC50 [2] of the same compound?
The IC50 was 26.1 nM.

What about the IC50 [3] of the same compound?
Its IC50 is 55.1 nM.

What about the IC50 (A-375) of the same compound?
The IC50 was 5.51 µM.

And the IC50 (SK-MEL-28)?
The IC50 was 8.98 µM.

For O=C(NCCCNc1nccc(-c2c(-c3cccc(F)c3)nc3sccn23)n1)c1ccc(Cl)cc1, which IC50 (A-375) is on record?
Its IC50 is 13.7 µM.

And the IC50 (SK-MEL-28)?
Its IC50 is greater than 20 µM.
